This note sets out measurements from ChEMBL document CHEMBL1128397, “Novel 2,4-diamino-5-substituted-pyrrolo[2,3-d]pyrimidines as classical and nonclassical antifolate inhibitors of dihydrofolate reductases” (J Med Chem, 1995).

Series [1] can be described thus: Ratio of IC50 against rat liver DHFR and Pneumocystis carinii DHFR (IC50rl/IC50pc).
The nature of series [2]: Ratio of the IC50 against rat liver DHFR and Toxoplasma gondii DHFR (IC50rl/IC50tg).
The target in series [3] is T1, Bifunctional dihydrofolate reductase-thymidylate synthase (Toxoplasma gondii, UniProt Q07422).
T1 sequence (Q07422 whole entry): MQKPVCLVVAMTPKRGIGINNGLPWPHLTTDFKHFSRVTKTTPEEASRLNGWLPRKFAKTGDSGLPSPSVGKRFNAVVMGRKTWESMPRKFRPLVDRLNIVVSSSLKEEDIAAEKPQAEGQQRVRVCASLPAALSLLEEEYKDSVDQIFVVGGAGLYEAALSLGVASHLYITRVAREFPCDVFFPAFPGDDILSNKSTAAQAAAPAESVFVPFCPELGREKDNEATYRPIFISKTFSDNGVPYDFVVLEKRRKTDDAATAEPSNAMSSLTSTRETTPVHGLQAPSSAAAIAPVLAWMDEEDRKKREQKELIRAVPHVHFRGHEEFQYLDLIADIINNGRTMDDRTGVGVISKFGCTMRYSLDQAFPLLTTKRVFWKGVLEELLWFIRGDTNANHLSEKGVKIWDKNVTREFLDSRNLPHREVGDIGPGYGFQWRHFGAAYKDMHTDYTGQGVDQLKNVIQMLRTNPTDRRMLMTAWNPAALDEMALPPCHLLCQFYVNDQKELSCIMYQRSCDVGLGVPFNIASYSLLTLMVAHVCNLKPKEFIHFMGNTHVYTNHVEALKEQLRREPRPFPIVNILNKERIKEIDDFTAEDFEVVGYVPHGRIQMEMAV
Description: Inhibition of Toxoplasma gondii (tc) Dihydrofolate reductase

The target in series [4] is T2, Dihydrofolate reductase (Rattus norvegicus, UniProt Q920D2).
T2 sequence (Q920D2 whole entry): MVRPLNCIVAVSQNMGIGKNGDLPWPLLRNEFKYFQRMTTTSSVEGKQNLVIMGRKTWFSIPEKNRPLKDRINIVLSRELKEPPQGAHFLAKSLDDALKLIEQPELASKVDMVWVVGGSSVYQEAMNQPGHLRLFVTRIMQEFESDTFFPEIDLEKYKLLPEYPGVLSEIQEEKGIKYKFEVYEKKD
Description: Inhibition of rat liver Dihydrofolate reductase

For series [5], the target named is T3, Dihydrofolate reductase (Pneumocystis carinii, UniProt P16184).
T3 sequence (P16184 whole entry): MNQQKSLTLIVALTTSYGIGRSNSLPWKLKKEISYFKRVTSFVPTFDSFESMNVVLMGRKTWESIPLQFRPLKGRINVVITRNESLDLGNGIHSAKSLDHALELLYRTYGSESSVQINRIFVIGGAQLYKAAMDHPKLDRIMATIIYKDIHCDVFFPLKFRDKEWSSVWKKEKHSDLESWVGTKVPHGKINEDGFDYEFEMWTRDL
Description: Inhibition of Pneumocystis carinii (pc) Dihydrofolate reductase

For series [6], the system named is A253 cell line. As to the kind of experiment: Growth inhibition of human squamous carcinoma cell lines following continuous (120 hours) exposure to MTX and compound A253 cell line. It counts as functional, cell-based. The conditions noted are these: A253, 120 h.
The subject of series [7] is FaDu. Nature of the series: Growth inhibition of human squamous carcinoma cell lines following continuous (120 hours) exposure to MTX and compound FaDu cell line. It counts as functional, cell-based.
Series [8] can be described thus: Relative Vmax of compound was measured. It counts as ADME.
For series [9], the system named is CCRF-CEM. Nature of the series: Compound was evaluated for the growth inhibition of R2, a CCRF-CEM subline resistant to MTX as a result of deffective uptake. It counts as functional, cell-based. The conditions noted are these: Homo sapiens.
Series [10] relates to CCRF-CEM. Nature of the series: Compound was evaluated for the growth inhibition of R30dm, a CCRF-CEM subline resistant to intermittent MTX exposure solely as a result of decreased polyglutamylation. It counts as functional, cell-based. The conditions noted are these: Homo sapiens.
Series [11] concerns CCRF-CEM. As to the kind of experiment: Compound was evaluated for the growth inhibition of parental CCRF-CEM. It counts as functional, cell-based. The conditions noted are these: Homo sapiens.
Compound in series [12]: Nc1nc(N)c2nc(CNc3ccc(C(=O)N[C@@H](CCC(=O)O)C(=O)O)cc3)cnc2n1
Nature of the series: Inhibitory activity of compound was measured for CCRF-CEM human leukemia cell Folyl-polyglutamate synthase.

Series [13] addresses Folylpolyglutamate synthase, mitochondrial (Homo sapiens) (UniProt Q05932). As to the kind of experiment: Inhibitory activity of compound was measured for CCRF-CEM human leukemia cell Folyl-polyglutamate synthase.

Some results are limits rather than exact numbers.

The term IC50 denotes the point on the concentration scale where inhibition reaches its midpoint. Low readings indicate greater potency in that assay, high ones weaker potency in that assay. Turning to `COc1ccc(NCc2c[nH]c3nc(N)nc(N)c23)cc1`, the Selectivity ratio in series [1] was determined as 0.23; in series [2], 10.5. Moreover, the IC50 in series [3] was found to be 6000 nM; in series [4], 63000 nM; in series [5] it was 279000 nM.

As usually defined, the EC50 is the concentration that produces a half-maximal response. For `CN(Cc1cnc2nc(N)nc(N)c2n1)c1ccc(C(=O)N[C@@H](CCC(=O)O)C(=O)O)cc1` [METHOTREXATE], the values for the 50% effective concentration (EC50) in series [6] and in [7] were 17 nM and 31 nM, respectively.

As to `Nc1nc(N)c2c(CNc3ccccc3)c[nH]c2n1`, the Selectivity ratio in series [1] is below 1; in [2], above 65.

In the case of `Nc1nc(N)c2c(CNc3ccc(C(=O)NC(CCC(=O)O)C(=O)O)cc3)c[nH]c2n1` (stereo not given), the concentration for a half-maximal effect (EC50) in [6] was determined as 46 nM; in series [9], 1650 nM; in series [10], 36 nM; in series [11], 12.8 nM; in series [7] it was 22 nM. Also, the Vmax in [8] came to 0.72. Further, the values for the IC50 in series [3] and in [5] were 210 nM and 38 nM, respectively.

With `COc1ccc(OC)c(NCc2c[nH]c3nc(N)nc(N)c23)c1`, the figures for the Selectivity ratio in series [1] and in series [2] were 3.4 and 92, respectively. The 50% inhibitory concentration (IC50) came out at 1700 nM in [3] and 156000 nM in series [4].

In the case of `Nc1nc(N)c2nc(CNc3ccc(C(=O)N[C@@H](CCC(=O)O)C(=O)O)cc3)cnc2n1` [AMINOPTERIN], the Vmax in [8] is 1.

For the molecule `COc1cc(NCc2c[nH]c3nc(N)nc(N)c23)cc(OC)c1OC`, the results for the Selectivity ratio in series [1] and in series [2] were below 2.4 and 7, respectively. The concentration for half-maximal inhibition (IC50) in [3] was 8100 nM; in [4], 56300 nM; in [5], above 23000 nM.

With `Nc1nc(N)c2c(CNc3cccc4ccccc34)c[nH]c2n1`, the Selectivity ratio in series [1] is 0.2; in [2], 53.9. Further, the results for the IC50 in series [3], in series [4] and in series [5] were 1100 nM, 59300 nM and 307000 nM, respectively.

Regarding `CCOc1ccc(OCC)c(NCc2c[nH]c3nc(N)nc(N)c23)c1`, the 50% inhibitory concentration (IC50) in series [5] came to 21000 nM.

B1: Folylpolyglutamate synthase, mitochondrial (Homo sapiens), Q05932 (protein)
chain: MSRARSHLRAALFLAAASARGITTQVAARRGLSAWPVPQEPSMEYQDAVRMLNTLQTNAGYLEQVKRQRGDPQTQLEAMELYLARSGLQVEDLDRLNIIHVTGTKGKGSTCAFTECILRSYGLKTGFFSSPHLVQVRERIRINGQPISPELFTKYFWRLYHRLEETKDGSCVSMPPYFRFLTLMAFHVFLQEKVDLAVVEVGIGGAYDCTNIIRKPVVCGVSSLGIDHTSLLGDTVEKIAWQKGGIFKQGVPAFTVLQPEGPLAVLRDRAQQISCPLYLCPMLEALEEGGPPLTLGLEGEHQRSNAALALQLAHCWLQRQDRHGAGEPKASRPGLLWQLPLAPVFQPTSHMRLGLRNTEWPGRTQVLRRGPLTWYLDGAHTASSAQACVRWFRQALQGRERPSGGPEVRVLLFNATGDRDPAALLKLLQPCQFDYAVFCPNLTEVSSTGNADQQNFTVTLDQVLLRCLEHQQHWNHLDEEQASPDLWSAPSPEPGGSASLLLAPHPPHTCSASSLVFSCISHALQWISQGRDPIFQPPSPPKGLLTHPVAHSGASILREAAAIHVLVTGSLHLVGGVLKLLEPALSQ
As usually defined, the Km is the concentration of substrate that gives half-maximal velocity. As for B1, the figures for the Km in series [12] and in [13] were 4.3 µM and below 1 µM, respectively.
